Data published in patent US20180291353A1, “MONOFUNCTIONAL ALDEHYDE AND ALCOHOL DEHYDROGENASES FOR PRODUCTION OF FUELS AND COMMODITY CHEMICALS” (The Regents of the University of California, priority 2015, published 2018).

Assays:
[1] = target: T1, AdhE2-ADH (alcohol dehydrogenase domain of bifunctional AdhE2, wild type, GI 499193180, SEQ ID NO: 41) (Clostridium acetobutylicum, UniProt Q9ANR5); assay: In vitro kinetics of aldehyde/alcohol dehydrogenases, oxidation of NADH at 340 nm (alcohol dehydrogenase domain of AdhE2); format: biochemical
T1 construct: alcohol dehydrogenase activity (C-terminal domain) measured
T1 sequence (Q9ANR5 1-858): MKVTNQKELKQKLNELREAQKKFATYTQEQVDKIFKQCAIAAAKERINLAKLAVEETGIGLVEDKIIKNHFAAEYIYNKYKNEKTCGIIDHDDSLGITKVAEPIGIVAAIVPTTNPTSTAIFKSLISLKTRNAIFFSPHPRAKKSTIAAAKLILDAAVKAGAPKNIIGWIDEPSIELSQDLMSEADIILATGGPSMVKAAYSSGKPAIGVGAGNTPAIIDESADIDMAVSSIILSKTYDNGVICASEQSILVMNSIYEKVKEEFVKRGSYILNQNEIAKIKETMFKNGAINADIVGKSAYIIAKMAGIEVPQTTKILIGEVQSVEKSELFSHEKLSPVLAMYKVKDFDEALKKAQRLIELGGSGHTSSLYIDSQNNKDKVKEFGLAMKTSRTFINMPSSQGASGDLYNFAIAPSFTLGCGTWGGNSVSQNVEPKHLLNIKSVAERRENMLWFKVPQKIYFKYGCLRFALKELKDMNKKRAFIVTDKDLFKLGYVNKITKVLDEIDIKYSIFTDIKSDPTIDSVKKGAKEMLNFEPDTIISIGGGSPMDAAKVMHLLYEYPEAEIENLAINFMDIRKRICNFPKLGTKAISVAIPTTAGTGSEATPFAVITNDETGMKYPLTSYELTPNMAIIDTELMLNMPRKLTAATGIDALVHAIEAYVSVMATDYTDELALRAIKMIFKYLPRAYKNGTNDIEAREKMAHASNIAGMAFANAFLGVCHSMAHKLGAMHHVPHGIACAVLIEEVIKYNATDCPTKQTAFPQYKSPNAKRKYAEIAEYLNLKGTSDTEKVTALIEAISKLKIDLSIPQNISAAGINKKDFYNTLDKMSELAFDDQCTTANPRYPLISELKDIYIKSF
Experimental: (§1) Activity of ALDH proteins was measured by monitoring the oxidation of NADH at 340 nm at 30° C. The assay mixture (400 μL) contained 100 μM NADH in 100 mM Tris 1 mM DTT pH 7.5. The reaction was initiated by the addition of substrate. Kinetic parameters (kcat, KM) were determined by fitting the data using Microcal Origin to the equation: vo=vmax [S]/(KM+[S]), where v is the initial rate and [S] is the substrate concentration. Data are reported as mean±s.e. (n=3) unless otherwise noted with standard error derived from the nonlinear curve fitting. Error bars on graphs represent mean±s.d. (n=3). Error in kcat/KM is calculated by propagation of error from the individual kinetic parameters.
(§2) To further explore the potential for expressing monofunctional aldehyde and alcohol dehydrogenases in host cells for the production of alcohols, various aldehyde and alcohol dehydrogenases were purified and isolated to investigate their in vitro kinetic behavior with various C4 and C2 substrates. In particular, the monofunctional aldehyde dehydrogenase identified in FIG. 3 above (GI 150018649, also referred to as ALDH16) was purified (FIG. 4A and FIG. 4B) and the in vitro kinetic behavior of a purified Strep-ALDH16 protein with various C4 and C2 substrates was tested.

[2] = target: T2, AdhE2-ALDH (aldehyde dehydrogenase domain of bifunctional AdhE2, wild type, GI 499193180, SEQ ID NO: 41) (Clostridium acetobutylicum, UniProt Q9ANR5); assay: In vitro kinetics of aldehyde/alcohol dehydrogenases, oxidation of NADH at 340 nm (aldehyde dehydrogenase domain of AdhE2)
T2 sequence (Q9ANR5 1-858): T1 sequence (Q9ANR5 1-858)

[3] = target: T3, ALDH16 (monofunctional aldehyde dehydrogenase, GI 150018649, SEQ ID NO: 16; Strep-ALDH16) (Clostridium diolis, UniProt A0AAV3W6M8); assay: In vitro kinetics of aldehyde/alcohol dehydrogenases, oxidation of NADH at 340 nm (purified Strep-ALDH16); format: biochemical
T3 sequence (A0AAV3W6M8 1-468): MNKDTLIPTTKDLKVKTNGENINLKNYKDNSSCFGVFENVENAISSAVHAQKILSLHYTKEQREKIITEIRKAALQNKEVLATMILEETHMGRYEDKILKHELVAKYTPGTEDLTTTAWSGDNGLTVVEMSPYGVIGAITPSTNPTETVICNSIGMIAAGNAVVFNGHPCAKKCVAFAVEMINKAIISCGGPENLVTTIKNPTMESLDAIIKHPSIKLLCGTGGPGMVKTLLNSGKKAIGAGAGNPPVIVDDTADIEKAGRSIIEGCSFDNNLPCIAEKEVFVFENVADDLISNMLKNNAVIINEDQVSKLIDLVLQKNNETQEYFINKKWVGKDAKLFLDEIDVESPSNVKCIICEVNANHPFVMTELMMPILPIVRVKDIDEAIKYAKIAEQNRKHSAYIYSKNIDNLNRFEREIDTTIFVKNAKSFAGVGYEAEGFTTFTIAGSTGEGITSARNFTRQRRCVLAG
Experimental: as §1, §2

[4] = substrate: CC=O; assay: In vitro kinetics of aldehyde/alcohol dehydrogenases, oxidation of NADH at 340 nm (alcohol dehydrogenase domain of AdhE2); format: biochemical; details: other: 100 μM NADH, 100 mM Tris, 1 mM DTT, pH 7.5, 30° C., mean±s.e. (n=3)
Experimental: as §1, §2

[5] = substrate: CCCC=O; assay: as above; format: biochemical; details: other: 100 μM NADH, 100 mM Tris, 1 mM DTT, pH 7.5, 30° C., mean±s.e. (n=3)
Experimental: as §1, §2

[6] = test system: butanol production pathway; assay: Butanol and ethanol production in E. coli MC1.24 (quintuple KO) with bifunctional or monofunctional dehydrogenases (FIG. 5); format: cell-based; details: E. coli MC1.24, FIG. 5
Source text: FIG. 5 illustrates genetically engineered improvement of a butanol production pathway composed of monofunctional aldehyde and alcohol dehydrogenases. The fuel titer of either butanol or ethanol in E. coli cells expressing the biosynthetic pathway shown in FIG. 6A with various particular alcohol and/or aldehyde dehydrogenases is shown. Specifically, E. coli MC1.24 (quintuple KO) was transformed with pT533-phaA.HBD, pBBR2-aceE.F.lpd and 1: pCWO.trc-ter-adhE2, 2: pCDF3-aldh16, 3: pCWori-ter-aldh16.CaADH, or 4: pCWO.trc-ter-aldh16.CaADH as indicated.
. The cultures were grown at 37° C. in a rotary shaker (200 r.p.m.) and induced with IPTG (1.0 mM) at OD600=0.35-0.45. At this time, the growth temperature was reduced to 30° C., and the culture flasks were sealed with Parafilm M (Pechiney Plastic Packaging) to prevent product evaporation for aerobic cultures. Anaerobic cultures were sealed and the headspace was sparged with argon for 5 minutes immediately follow induction. Aerobic cultures were unsealed for 10 to 30 min every 24 h then resealed with Parafilm M, and additional glucose (1% (w/v)) was added 1 day post-induction. Samples were quantified after 3 d of cell culture.
Samples (2 ml) were removed from cell culture and cleared of biomass by centrifugation at 20,817 g for 2 min using an Eppendorf 5417R centrifuge. The supernatant or cleared medium sample was then mixed in a 9:1 ratio with an aqueous solution containing the isobutanol internal standard (10,000 mg l^−1). These samples were then analyzed on a Trace GC Ultra (Thermo Scientific) using an HP-5MS column (0.25 mm×30 m, 0.25 μM film thickness, J & W Scientific). The oven program was as follows: 75° C. for 3 min, ramp to 300° C. at 45° C. min^−1, 300° C. for 1 min. n-Butanol was quantified by flame ionization detection (FID) (flow: 350 ml min^−1 air, 35 ml min^−1 H2 and 30 ml min^−1 helium). Samples containing n-butanol levels below 500 mg 1^−1 were requantified after extraction of the cleared medium sample or standard (500 μl) with toluene (500 μl) containing the isobutanol internal standard (100 mg 1^−1) using a Digital Vortex Mixer (Fisher) for 5 min set at 2,000. The organic layer was then quantified using the same GC parameters with a DSQII single-quadrupole mass spectrometer (Thermo Scientific) using single-ion monitoring (m/z 41 and 56) concurrent with full scan mode (m/z 35-80). Samples were quantified relative to a standard curve of 2, 4, 8, 16, 31, 63, 125, 250, 500 mg 1^−1 n-butanol for MS detection or 125, 250, 500, 1,000, 2,000, 4,000, 8,000 mg 1^−1 n-butanol for FID detection. Standard curves were prepared freshly during each run and normalized for injection volume using the internal isobutanol standard (100 or 1,000 mg 1^−1 for MS and FID, respectively). […]

[7] = 100 μM NADH, 100 mM Tris, 1 mM DTT, pH 7.5, 30° C., mean±s.e. (n=3)

## CC=O [acetaldehyde]
[1]; [7]
  kcat: 5.6 ± 0.1 s⁻¹
[1]; from Table 4
  preference for acetaldehyde over butyraldehyde: 1.7 fold

## CCCC(=O)SCCNC(=O)CCNC(=O)[C@H](O)C(C)(C)COP(=O)(O)OP(=O)(O)OC[C@H]1O[C@@H](n2cnc3c(N)ncnc32)[C@H](O)[C@@H]1OP(=O)(O)O [butyryl-CoA]
[2]; [7]
  kcat: 1.2 ± 0.1 s⁻¹
[2]; from Table 4
  preference for butyryl-CoA over acetyl-CoA: 8.5 fold
[3]; [7]
  kcat: 0.11 ± 0.01 s⁻¹
[3]; from Table 4
  preference (specificity) for butyryl-CoA over acetyl-CoA: 73 fold

## CC(=O)SCCNC(=O)CCNC(=O)[C@H](O)C(C)(C)COP(=O)(O)OP(=O)(O)OC[C@H]1O[C@@H](n2cnc3c(N)ncnc32)[C@H](O)[C@@H]1OP(=O)(O)O [acetyl-CoA]
[3]; compared with ALDH domain of AdhE2
  higher KM for acetyl-CoA: 5 fold

B1: AdhE2-ADH (alcohol dehydrogenase domain of bifunctional AdhE2, wild type, GI 499193180, SEQ ID NO: 41) (Clostridium acetobutylicum) (protein)
chain: T1 sequence (Q9ANR5 1-858)
notes: alcohol dehydrogenase activity (C-terminal domain) measured
[4]
  Km: 4.5 ± 0.3 mM
[5]
  Km: 4 ± 0.4 mM
  kcat: 2.9 ± 0.1 s⁻¹
  kcat/Km: 700 ± 20 M⁻¹ s⁻¹

B2: AdhE2: bifunctional alcohol and aldehyde dehydrogenase, wild-type AdhE2 (protein, listed as Clostridium acetobutylicum)
chain: T1 sequence (Q9ANR5 1-858)
[6]
  butanol production: 4.5 g/L
  ethanol production: 3 g/L
